According to patent US20080139463A1, “Use Of [D-Meala]3-[Etval]4-Cyclosporin For The Treatment Of Hepatitis C Infection And Pharmaceutical Composition Comprising Said [D-Meala]3-[Etval]4-Cyclosporin” (priority 2005, published 2008):
In brackets after ≈: the same amount, converted by molar mass.

Assays:
[1] = test system: HCV replicon in MH-14 cells; details: cited from earlier work; for HCV RNA accumulation inhibited: Northern blot and quantitative RT-PCR, MH-14 cells
CD4^+ PBMCs = assay: Mixed lymphocyte reaction, [3H]-thymidine incorporation; format: cell-based; details: for immunosuppressive activity (interpretation of Table 2): mixed lymphocyte reaction; for % Stimulation (relative): cyclosporin 1 μg/ml, five days
Procedure: In this assay, cyclosporins were dissolved in ethanol (10 mg/ml). Freshly isolated CD4^+ PBMCs from two healthy donors were mixed subsequent to inactivation by irradiation of one of the populations (stimulator cells; S). […] R) was determined by [^3H]-thymidine incorporation. The assay was conducted reciprocally with the two cell populations, each being inactivated and stimulated in turn. Stimulation (%) of responder cells was calculated by the formula: […] Sample refers to a mixture of stimulator and responder cells. Background represents a control in which only stimulator cells are mixed.

[2] = MTT assay of cytostatic/cytotoxic effect in Huh 5-2 cells; details: human
From the text: Cell density and cytostatic effects were estimated in parallel cultures in regular 96-well plates (Beckton-Dickinson) using the MTT assay (CellTiter 96® AQueous Non-Radioactive Cell Proliferation Assay, Promega). In this assay, 3-(4,5-dimethylthiazol-2-yl)-5-(3-carboxymethoxy-phenyl)-2-(4-sulfophenyl)-2H-tetrazolium (MTS) is bioreduced to a formazan that is quantitated at 498 nm in a plate reader. Formazan production is directly correlated with number of life cells.
(§1) Results from these experiments permitted calculation of EC50 for the different cyclosporins, which is the effective concentration required to inhibit HCV replicon replication by 50%, and of CC50, which is the concentration required that inhibits the proliferation of exponentially growing cells by 50%, and a selectivity index SI, which is the ratio between CC50 and EC50.

[3] = test system: Jc1-Luc virus (full-length chimeric genome between HCV strains J6 and JFH1); assay: Antiviral luciferase assay in hepatoma cells infected with recombinant HCV; format: cell-based; details: infected Huh-7-Lunet and Huh-7.5 cells, 72 hours, FIGS. 1 and 2
From the text: The method used hepatoma cells that had been infected with an infectious full length chimeric HCV construct or the same virus that was modified to carry a luciferase receptor gene.
Infectious HCV viruses of full-length chimeric genome between HCV strains J6 and JFH1 (Jc1) were used to inoculate the hepatoma cells of the assays. The construct of Jc1 virus was also modified to obtain a bicistronic genome carrying a luciferase reporter gene (Jc1-Luc).
Assays used either Huh-7-Lunet or Huh-7.5 cells (Lohmann et al., Science 285(5424), (1999), 110-113). Cells were grown in Dulbecco's modified Eagle's Medium (DMEM; Gibco) supplemented with 10% heat-inactivated fetal bovine serum (FCS) (Integro), 1× non-essential amino acids (Gibco), 100 IU/ml penicillin (Gibco), 100 μg/ml streptomycin (Gibco) or 25 μg/ml hygromycin (Gibco) for Huh-mono cells at 37° C. and 5% CO2. For antiviral (replication) assays, Huh-7-Lunet and Huh-7.5 cells were seeded at a density of 2×104 or 4×10^4 cells per well of a 12-well plate. […]
The inhibition of viral replication were estimated by luciferase assay. […] Firefly luciferase activity was measured according to Krieger et al. (J Virol, 75(10), (2001), 4614-4624). […] Finally, luminescence was measured by using a Lumat LB9507 luminometer (Berthold) for 20 samples.

[4] = biological target: T1, human recombinant cyclophilin A (Homo sapiens, UniProt P62937); assay: PPlase activity of cyclophilin A, tight binding inhibitor fit (Garcia-Echverria et al.); format: biochemical; details: for Et (total enzyme concentration): fit parameter of tight binding equation
T1 construct: purchased Sigma
T1 sequence (P62937 whole entry): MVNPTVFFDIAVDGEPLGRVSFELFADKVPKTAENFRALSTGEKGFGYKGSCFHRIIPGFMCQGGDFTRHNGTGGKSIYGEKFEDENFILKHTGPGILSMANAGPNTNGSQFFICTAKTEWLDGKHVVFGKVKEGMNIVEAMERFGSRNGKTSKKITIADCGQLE
Procedure: Commercial human recombinant cyclophilin A (Sigma) was used in the assays. PPlase activity of cyclophilins was determined using a chymotrypsin-coupled spectrophotometric assay according to Garcia-Echverria et al. (BBRC, 191, (1993), 70-75). This method is based on the high trans selectivity of chymotrypsin for peptides of the type N-succinyl-ala-ala-pro-phe-p-nitroanilide. The peptides cleavage liberated the para-nitroaniline moiety that could be detected and quantitated at 390 nm. The hydrolysis of the cis form was limited by the rate of cis-trans isomerisation carried out by cyclophilin A. The peptide was made up in a solution of […] LiCl in 2,2,2-trifluoroethanol at 470 mM to enhance the cis conformer peptides population. The assay was performed on the split beam spectrophotometer and the water bath was set at 5° C. Cyclophilin A (7500 pmol/mg total enzyme concentration; Sigma) were dissolved at 20 nM in a buffer (35 mM HEPES and 0.26 mg/ml chymotrypsin (specific activity 50 units/mg), pH 7.8 with KOH) and were incubated for 6 minutes at room temperature followed by 54 minutes in the water bath. […] Then 3.5 ml of the incubated cyclophilin was added to the sample cuvette. […] Peptide was added at 25 μM to initiate the reaction and the change in absorbance was monitored at 10 data points per second. As a control, rates were also determined for a parallel reaction that lacked cyclophilin. These blank rates of peptide hydrolysis (i.e. in the absence of cyclophilin) were subtracted from rates in the presence of cyclophilin A.
The initial rates obtained from the PPlase assays were analysed by first order regression analysis by using first order transformation of the traces of the time course of the change in the absorbance at 390 nm. Total enzyme concentration (Et), the inhibitor dissociation constant (Ki) and the rate constant for the rate limiting reaction was calculated with the software FigSyS (2003, Biosoft) by fitting the data obtained from the regression analysis in the tight binding inhibitor multiprotein equation.
v=k*Et*P−k*(−b−sqrt(b*b−4*c))/2
where b is defined as b=−(Et*P+I+Ki) and c is c=Et*P*I. Once Et, Ki and k were calculated by the computer for a given set of data, a graphic representation of the data was plotted and the line fitted to the points assuming tight inhibitor binding to a single protein, defined by the following equations:
v=K*Et*P−K(B−sqrt(B*B−4*C))/2
where B=Et*P+I+Ki and C=Et*P*I.

[5] = test system: HCV replicon in Huh-9-13 cells; assay: HCV replicon clearance and rebound in Huh-9-13 cells; format: cell-based; details: 0.5 or 1 μg/ml for 7 consecutive passages, then G418 1000 μg/ml for 2 passages; FIG. 3
Procedure: Assays used Huh-9-13 cells, human hepatoma cells (Huh-7) (Lohmann et al., Science 285(5424), (1999), 110-113) Cells were grown in the usual complete medium DMEM without G418 pressure.
RT-PCR were performed on extracts of viral RNA of samples taken at different passage points. The forward and reverse primers used were 5′-[sequence]-3′ and 5′-[sequence]-3′, respectively. The fluorogenic probe was 5′-[sequence]-3′. As an internal control, a plasmid containing part of the neomycin phosphotransferase gene sequence was used. Results were analysed and expressed as a quantity of replicon RNA (ng) per 1'000 cells and used to draft a graph.

[6] = Initial phase I clinical studies, safety of oral doses; format: in vivo; details: oral doses of 50 to 1600 mg; not dose-related
Procedure: Initial phase I clinical studies were carried out to assess the safety of oral doses of [D-MeAla]^3-[EtVal]^4-CsA, and to determine the pharmacokinetic profile and safety profile of the drug substance. […] These side effects were not dose-related.

[7] = test system: luciferase-containing HCV minireplicon in Huh 5-2 cells
Procedure: (§2) Assays used Huh 5-2 cells that contained a bicistronic RNA encoding a firefly luciferase-ubiquitin-neomycin phosphotransferase fusion protein and HCV proteins NS3-5. The viral sequences originated from an HCV virus of genotype 1b. Cells were cultured in RPMI 1640 medium (Gibco) supplemented with 10% fetal calf serum, 2 mM glutamine (Life Technologies), 1× non-essential amino acids (Life Technologies), 100 u/ml penicillin, 100 μg/ml streptomycin and 250 μg/ml G418 (Geneticin, Life Technologies) at 37° C. and 5% CO2. For antiviral (replication) assays, cells were seeded at a density of 7000 cells/well in 96-well View Plates™ (Packard) in the same medium except for G418. After a 24-h incubation, medium was removed, serial dilutions of test compounds in medium were added, and cells were incubated for an additional 72 h.
Antiviral effects were estimated either by luciferase assay or quantitative RT-PCR. To carry out luciferase assays, medium was removed, and cells were washed with PBS. Subsequent to lysis in 50 μl of Glo-lysis buffer (Promega) for 15 min, 50 μl of Stead-Glo Luciferase Assay Reagent (Promega) were added to cell lysates. Luciferase activity was measured using a luminometer, and the signal from each test well was expressed as a percentage of the signal measured in wells of cultures not exposed to a test compound. […]

[8] = test system: HCV replicon in Huh 5-2 cells; details: EC50 derived from RNA titers by quantitative RT-PCR; asterisk = lower of two independently determined values
Procedure: as §2
The fluorogenic probe was 5′-[…]-3′.
as §1

Compound | HCV RNA accumulation inhibited [1] | immunosuppressive activity (interpretation of Table 2) (CD4^+ PBMCs) | CC50 ([2]; Huh 5-2 cells) [mg/L] | antiviral activity [3] | k (rate constant for the rate limiting reaction) ([4]; cyclophilin A) [s⁻¹] | Et (total enzyme concentration) [4] [pmol/mg] | outcome of treated cultures in the presence of G418 (rebound phase) [5] | side effects [6] | % Stimulation (relative) (CD4^+ PBMCs; co-culture R1 × S2) [%] | % Stimulation (relative) (CD4^+ PBMCs; co-culture R2 × S1) [%] | EC50 (μg/ml) +/− Std. Dev. ([7]; luciferase assay, Huh 5-2 cells, 72 h) [µg/mL] | Selectivity index ([7]; ratio between CC50 and EC50, luciferase and MTT assays) | CC50 [2] [mg/L] | SI values [8] | Ki ([4]; cyclophilin A, inhibitor 2-50 nM) [nM] | effectiveness in reducing HCV RNA titer ([1]; compared with CsA) | HCV RNA titer reduction ([1]; 1 μg/ml, 7-day exposure)
C/C=C/C[C@@H](C)C(=O)[C@H]1C(=O)N[C@@H](C(C)C)C(=O)N(C)CC(=O)N(C)[C@@H](CC(C)C)C(=O)N[C@@H](C(C)C)C(=O)N(C)[C@@H](CC(C)C)C(=O)N[C@@H](C)C(=O)N[C@H](C)C(=O)N(C)[C@@H](CC(C)C)C(=O)N(C)[C@@H](CC(C)C)C(=O)N(C)[C@@H](C(C)C)C(=O)N1C [PSC 833] | not | – | – | – | – | – | – | – | – | – | – | – | – | – | – | – | –
C/C=C/C[C@@H](C)[C@@H](O)[C@H]1C(=O)N[C@@H](CC)C(=O)N(C)[C@H](C)C(=O)N(CC)[C@@H](C(C)C)C(=O)N[C@@H](C(C)C)C(=O)N(C)[C@@H](CC(C)C)C(=O)N[C@@H](C)C(=O)N[C@H](C)C(=O)N(C)[C@@H](CC(C)C)C(=O)N(C)[C@@H](CC(C)C)C(=O)N(C)[C@@H](C(C)C)C(=O)N1C [[D-MeAla]^3-[EtVal]^4-CsA] | – | essentially devoid of immunosuppressive activity | > 27 | dose-dependent antiviral activity | 0.16 ± 0.0074 | 7500 | the cultures died | Mild and short-lived side effects were observed including nausea, vomiting, abdominal pain, mild headaches | – | – | – | – | – | – | – | – | –
C/C=C/C[C@@H](C)[C@@H](O)[C@H]1C(=O)N[C@@H](CC)C(=O)N(C)CC(=O)N(C)[C@@H]([C@@H](C)CC)C(=O)N[C@@H](C(C)C)C(=O)N(C)[C@@H](CC(C)C)C(=O)N[C@@H](C)C(=O)N[C@H](C)C(=O)N(C)[C@@H](CC(C)C)C(=O)N(C)[C@@H](CC(C)C)C(=O)N(C)[C@@H](C(C)C)C(=O)N1C [[MeIle]^4-CsA] | – | essentially devoid of immunosuppressive activity | – | – | 0.17 ± 0.0068 | 7500 | – | – | 84 | 75 | 0.22 (≈ 0.183 µM) | 64 | 14 (≈ 11.6 µM) | 73 | 2.11 ± 0.32 | about equally as effective as CsA | –
Cyclosporin A [CsA] | inhibited | – | – | dose-dependent antiviral activity | 0.17 ± 0.0069 | 7500 | – | – | – | – | – | – | – | – | – | – | about 200 fold
